How the values were obtained:
Human tumor cells = test: Soft Agar Assay (anchorage-independent growth); type: cell-based; settings: incubated 10-16 days at 37° C. under 5% CO2, MTT stain
Procedure: Anchorage-independent growth is a characteristic of tumorigenic cell lines. Human tumor cells are suspended in growth medium containing 0.3% agarose and an indicated concentration of a farnesyl transferase inhibitor. The solution is overlayed onto growth medium solidified with 0.6% agarose containing the same concentration of farnesyl transferase inhibitor as the top layer. After the top layer is solidified, plates are incubated for 10-16 days at 37° C. under 5% CO2 to allow colony outgrowth. After incubation, the colonies are stained by overlaying the agar with a solution of MTT (3-[4,5-dimethyl-thiazol-2-yl]-2,5-diphenyltetrazolium bromide, Thiazolyl blue) (1 mg/mL in PBS). Colonies can be counted and the IC50 's can be determined.

[1] = molecular target: farnesyl protein transferase (H-ras) (Homo sapiens, UniProt P49354+P49356); test: FPT IC50 (H-ras), inhibition of farnesyl protein transferase, in vitro enzyme assay; type: biochemical
Procedure: (§1) FPT IC50 (inhibition of farnesyl protein transferase, in vitro enzyme assay) and COS Cell IC50 (Cell-Based Assay) were determined following the assay procedures described in WO 95/10516, published Apr. 20, 1995. GGPT IC50 (inhibition of geranylgeranyl protein transferase, in vitro enzyme assay), Cell Mat Assay, and anti-tumor activity (in vivo anti-tumor studies) could be determined by the assay procedures described in WO 95/10516. The disclosure of WO 95/10516 is incorporated herein by reference thereto.

COS Cell = COS Cell IC50 (Cell-Based Assay); settings: COS cells
Procedure: as §1

[2] = molecular target: farnesyl protein transferase (K-ras) (Homo sapiens, UniProt P49354+P49356); test: FPT IC50 (K-ras), inhibition of farnesyl protein transferase, in vitro enzyme assay; type: biochemical
Procedure: as §1

Row | IC50 (Human tumor cells) [nM] | IC50 [1] [nM] | IC50 [2] [nM] | SMILES | IC50 (COS Cell) [nM]
1 |  | 140 |  | O=C(CC1CCN(c2nccs2)CC1)N1CCC([C@H]2c3ncc(Br)cc3CCc3cc(Cl)cc(Br)c32)CC1 [Formula 3.0] | 
2 | > 500 | 10.6 | 29 | O=C(CC1CCN(c2ccccn2)CC1)N1CCC([C@H]2c3ncc(Br)cc3CCc3cc(Cl)cc(Br)c32)CC1 [Formula 5.0] | 39
3 |  | 20 |  | O=C(CC1CCN(c2ncccn2)CC1)N1CCC([C@H]2c3ncc(Br)cc3CCc3cc(Cl)cc(Br)c32)CC1 [Formula 6.0] | 68

Continued, compound first:

Row | SMILES | IC50 (Human tumor cells) [nM] | IC50 [1] [nM] | IC50 [2] [nM] | IC50 (COS Cell) [nM]
4 | CC(=O)OC[C@H]1O[C@@H](N2CCC(CC(=O)N3CCC([C@H]4c5ncc(Br)cc5CCc5cc(Cl)cc(Br)c54)CC3)CC2)[C@H](OC(C)=O)[C@@H](OC(C)=O)[C@@H]1OC(C)=O [Formula 9.3] | 80 | 4.6 | 40.9 | 35
5 | O=C(CC1CCN(c2nc3ccccc3o2)CC1)N1CCC([C@H]2c3ncc(Br)cc3CCc3cc(Cl)cc(Br)c32)CC1 [Formula 4.0] |  | 16 | 91 | 120
6 | O=C(CC1CCN(c2nnnn2-c2ccccc2)CC1)N1CCC([C@H]2c3ncc(Br)cc3CCc3cc(Cl)cc(Br)c32)CC1 [Formula 2.0] |  | 31 |  | 

From US5985879A, “Compounds useful for inhibition of farnesyl protein transferase” (Schering Corporation, priority 1997, dated 1999)
